{
  "source": "patent US10507247B2",
  "about": "“Optical probes for matrix metalloproteinases” (The University Court of the University of Edinburgh, priority 2015, dated 2019)",
  "key": {"MMP [1]": {"test_system": "MMP", "experiment": "Probe specificity by target inhibition (FIG. 9)", "assay_type": "biochemical, human", "details": "probe 1 μM, 30 min, inhibitor 200 nM", "quoted_text": "Probe specificity by target inhibition for probes A and probe B. Data represents the fluorescence signal provided by the probe (1 μM) after 30 min using a multiwell plate fluorimeter at excitation/emission 485/528 nm. To validate the specificity and ability of molecular probe to detect the target enzyme, probe fluorescence (initiated by cleavage) was measured in the presence of enzyme with/without inhibitor.\nThe enzyme assays were run in a 384-well format on a PCR opaque microplate (Thermo Scientific). All dilutions and reactions were prepared in MMP buffer (50 mM Tris, 10 mM CaCl2, 0.15M NaCl, 0.05% Brij-35, pH 7). Proteolytic activity was determined by calculating the fold change in fluorescence over background signal provided by the corresponding dilution of the probe and/or inhibitors with exogenous enzymes using a-multiwell plate fluorimeter (Synergy H1 Hybrid Reader, BioTek instruments Ltd) at excitation/emission 485/528 nm. Recombinant human MMPs (Catalytic domain MMP-1, -2, -3, -7, -8, -9, -10, -11, -12, -13 (Enzo Life Sciences) and Full-length MMP-2, -9, -12 and -13 (Merck/Millipore)) were used at 30 nM. Pro-MMP-13 (R & D Systems) was activated by incubating with 1 mM 4-aminophenylmercunc acetate (APMA) for 2 hrs at 37° C. […] For inhibition assays, enzyme and inhibitor were pre-incubated for 1 hr at 37° C. before the addition of molecular probe."}, "MMP-9": {"test_system": "MMP-9", "experiment": "Enzyme assay, fold change in probe fluorescence over background with MMP-9", "assay_type": "biochemical, human", "details": "different probe scaffolds (monomer, dendrimers); MMP-9 83 kDa", "protocol": "A library of probes (listed in Table 2 below) containing FAM (Carboxyfluorescein) as the fluorophore (donor) and MethylRed (MR) as the quencher (acceptor) and a variety of peptide sequences was synthesized by manual standard solid-phase Fmoc peptide chemistry (described below).\n(§1) Enzyme specificity of the lead probes with exogenous enzymes was tested using a multiwell plate fluorimeter at excitation/emission 485/528 nm (Table 3). Recombinant human catalytic domain MMPs-1, -2, -3, -7, -8, -9, -10, -11, -12, -13 were used at 30 nM. Cleavage site for each sequence is indicated in italics.\n(§2) The different compounds were also evaluated according to the fold change in fluorescent signal in presence of MMP-9 and MMP-13, and the results are shown in Table 7. From this comparison, the FRET dendrimers comprising SEQ ID NO.1 and SEQ ID NO.7 (AMF-106 and SVC-186) together with the 9Dendrimer comprising SEQ ID NO.7 (SVC-196) were chosen for further evaluation. These dendrimers are shown in FIG. 7, probe A (AMF-106), probe B (SVC-186) and probe C (SVC-196).\n(§3) The enzyme assays were run in a 384-well format on a PCR opaque microplate (Thermo Scientific). All dilutions and reactions were prepared in MMP buffer (50 mM Tris, 10 mM CaCl2, 0.15M NaCl, 0.05% Brij-35, pH 7). Proteolytic activity was determined by calculating the fold change in fluorescence over background signal provided by the corresponding dilution of the probe and/or inhibitors with exogenous enzymes using a-multiwell plate fluorimeter (Synergy H1 Hybrid Reader, BioTek instruments Ltd) at excitation/emission 485/528 nm. Recombinant human MMPs (Catalytic domain MMP-1, -2, -3, -7, -8, -9, -10, -11, -12, -13 (Enzo Life Sciences) and Full-length MMP-2, -9, -12 and -13 (Merck/Millipore)) were used at 30 nM. Pro-MMP-13 (R & D Systems) was activated by incubating with 1 mM 4-aminophenylmercunc acetate (APMA) for 2 hrs at 37° C. Human neutrophil elastase (Elastase Product Company, used at 2.5 ug/ml), neutrophil lysate (lysed human neutrophils), and recombinant human Thrombin (Sigma-Aldrich, used at 5 U/ml), Plasmin (Sigma-Aldrich, used at 30 nM) and Factor Xa (Sigma-Aldrich, used at 0.5 μM) were used to identify the lead molecular probe sequences. For inhibition assays, enzyme and inhibitor were pre-incubated for 1 hr at 37° C. before the addition of molecular probe."}, "MMP-13 [2]": {"test_system": "MMP-13", "experiment": "Enzyme assay, fold change in probe fluorescence over background with MMP-13", "assay_type": "biochemical, human", "details": "different probe scaffolds (monomer, dendrimers); MMP-13 52 kDa", "protocol": "as §1, §2, §3"}, "human MMP-2": {"target": "T1, human MMP-2 (Homo sapiens, UniProt P08253)", "T1 sequence (P08253 110-660)": "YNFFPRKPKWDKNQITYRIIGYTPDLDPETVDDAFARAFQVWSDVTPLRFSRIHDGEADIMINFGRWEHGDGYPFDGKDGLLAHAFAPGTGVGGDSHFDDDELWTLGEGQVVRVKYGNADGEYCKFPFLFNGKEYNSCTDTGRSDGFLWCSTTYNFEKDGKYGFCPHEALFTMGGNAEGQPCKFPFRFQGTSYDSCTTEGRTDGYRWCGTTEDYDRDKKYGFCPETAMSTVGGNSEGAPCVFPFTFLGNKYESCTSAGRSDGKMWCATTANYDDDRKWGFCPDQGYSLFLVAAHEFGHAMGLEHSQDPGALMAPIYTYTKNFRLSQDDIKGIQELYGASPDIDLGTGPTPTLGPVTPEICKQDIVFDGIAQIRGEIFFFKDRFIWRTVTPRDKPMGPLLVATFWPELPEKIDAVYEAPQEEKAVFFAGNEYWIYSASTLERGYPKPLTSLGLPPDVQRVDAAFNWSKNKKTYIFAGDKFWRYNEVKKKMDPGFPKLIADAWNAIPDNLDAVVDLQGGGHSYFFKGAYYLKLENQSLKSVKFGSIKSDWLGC", "experiment": "Enzyme kinetics of the molecular probe, MMP-2", "assay_type": "biochemical", "protocol": "(§4) Enzyme kinetics of the molecular probe specificity to human MMP-2, MMP-9, MMP-13 and plasmin. The kinetic constants KM and Vmax were calculated for probe A and B (Table 8 below).\nas §3, with “For inhibition assays, enzyme and inhibitor were pre-incubated for 1 hr at 37° C. before the addition of molecular probe.” left out"}, "human MMP-9": {"target": "human MMP-9 (Homo sapiens, UniProt P14780)", "sequence (P14780 94-707)": "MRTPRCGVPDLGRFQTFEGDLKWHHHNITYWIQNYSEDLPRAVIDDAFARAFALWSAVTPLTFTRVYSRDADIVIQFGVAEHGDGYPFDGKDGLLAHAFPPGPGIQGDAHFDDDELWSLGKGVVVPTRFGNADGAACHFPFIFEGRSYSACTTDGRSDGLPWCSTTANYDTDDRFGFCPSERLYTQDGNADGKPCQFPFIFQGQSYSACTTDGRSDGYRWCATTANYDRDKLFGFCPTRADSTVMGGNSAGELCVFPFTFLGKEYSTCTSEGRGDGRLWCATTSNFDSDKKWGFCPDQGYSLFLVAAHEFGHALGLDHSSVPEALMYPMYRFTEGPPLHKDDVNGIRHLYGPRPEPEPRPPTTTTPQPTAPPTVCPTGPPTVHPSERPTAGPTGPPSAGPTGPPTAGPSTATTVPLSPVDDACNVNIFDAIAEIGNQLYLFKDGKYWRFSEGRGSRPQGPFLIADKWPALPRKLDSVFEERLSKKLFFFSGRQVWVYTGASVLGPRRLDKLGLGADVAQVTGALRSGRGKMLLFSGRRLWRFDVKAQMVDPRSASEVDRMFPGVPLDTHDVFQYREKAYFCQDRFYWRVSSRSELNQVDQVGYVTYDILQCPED", "experiment": "Enzyme kinetics of the molecular probe, MMP-9", "assay_type": "biochemical", "protocol": "as §4\nas §3, with “For inhibition assays, enzyme and inhibitor were pre-incubated for 1 hr at 37° C. before the addition of molecular probe.” left out"}, "MMP-13 [3]": {"target": "MMP-13 (Homo sapiens, UniProt P45452)", "experiment": "Enzyme kinetics of the molecular probe, MMP-13", "assay_type": "biochemical", "protocol": "as §4\nas §3, with “For inhibition assays, enzyme and inhibitor were pre-incubated for 1 hr at 37° C. before the addition of molecular probe.” left out"}, "plasmin [4]": {"target": "T2, plasmin (Homo sapiens, UniProt P00747)", "T2 construct": "purchased Sigma-Aldrich", "T2 sequence (P00747 581-810 limits assumed)": "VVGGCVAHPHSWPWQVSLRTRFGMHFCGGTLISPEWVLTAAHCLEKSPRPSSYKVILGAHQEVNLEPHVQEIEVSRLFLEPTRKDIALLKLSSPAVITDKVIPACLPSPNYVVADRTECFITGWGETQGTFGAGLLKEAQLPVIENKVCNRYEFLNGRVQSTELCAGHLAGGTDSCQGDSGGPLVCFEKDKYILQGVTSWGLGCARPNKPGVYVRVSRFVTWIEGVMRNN", "T2 sequence (P00747 97-580 partner limits assumed)": "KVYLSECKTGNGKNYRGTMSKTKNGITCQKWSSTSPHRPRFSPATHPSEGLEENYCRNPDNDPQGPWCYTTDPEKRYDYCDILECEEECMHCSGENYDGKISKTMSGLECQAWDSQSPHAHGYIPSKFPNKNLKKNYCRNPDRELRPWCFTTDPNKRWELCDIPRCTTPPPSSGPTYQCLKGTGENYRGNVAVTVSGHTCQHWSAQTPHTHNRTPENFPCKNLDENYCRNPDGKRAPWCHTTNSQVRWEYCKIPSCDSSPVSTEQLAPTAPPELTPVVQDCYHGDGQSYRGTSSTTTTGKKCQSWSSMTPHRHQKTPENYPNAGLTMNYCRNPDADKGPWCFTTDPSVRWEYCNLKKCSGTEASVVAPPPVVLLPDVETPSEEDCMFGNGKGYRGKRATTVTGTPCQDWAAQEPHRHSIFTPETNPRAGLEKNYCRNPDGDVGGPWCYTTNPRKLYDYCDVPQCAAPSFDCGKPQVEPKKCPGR", "experiment": "Enzyme kinetics of the molecular probe, plasmin", "assay_type": "biochemical", "protocol": "as §4\nas §3, with “For inhibition assays, enzyme and inhibitor were pre-incubated for 1 hr at 37° C. before the addition of molecular probe.” left out"}, "plasmin [5]": {"target": "T2, plasmin", "experiment": "Susceptibility / stability of probes to plasmin", "assay_type": "biochemical", "protocol": "(§5) FIG. 8. Enzyme specificity of the FRET branched probes A, B and C. Data represents the average fold change in fluorescence over background signal provided by probe (10 μM) with exogenous enzymes using a multiwell plate fluorimeter (Synergy H1 Hybrid Reader, BioTek instruments Ltd) at excitation/emission 485/528 nm. Recombinant human catalytic domain MMPs-1, -2, -3, -7, -8, -9, -10, -11, -12, -13 were used at 30 nM. Recombinant human Thrombin, Plasmin and Factor Xa were used at 5 U/ml, 30 nM, 0.5 μM, respectively.\nAlso, to reduce degradation without altering the amino acid constituents we have synthesised variants including PEG units at the amino and/or carboxy termini in order to block degradation from the ends of the peptide sequence.\n(§6) Three selected probes (A: AMF-106, B: SVC-186 B, and C: SVC-196) were evaluated in vitro in a new experiment including other members of the MMP family (MMPs-1, -2, -3, -7, -8, -9, -10, -11, -12, -13) as well as Thrombin, Plasmin and Factor Xa, and the results are shown in FIG. 8. […] The plasmin cleavage site was identified and attempts to make a resistant version replacing with D-aa in these positions were unsuccessful.\nas §3, with “Human neutrophil elastase (Elastase Product Company, used at 2.5 ug/ml), neutrophil lysate (lysed human neutrophils), and recombinant human Thrombin (Sigma-Aldrich, used at 5 U/ml), Plasmin (Sigma-Aldrich, used at 30 nM) and Factor Xa (Sigma-Aldrich, used at 0.5 μM) were used to identify the lead molecular probe sequences. For inhibition assays, enzyme and inhibitor were pre-incubated for 1 hr at 37° C. before the addition of molecular probe.” left out"}, "[6]": {"test_system": "MMPs-1, -2, -3, -7, -8, -9, -10, -11, -12, -13, Thrombin, Plasmin and Factor Xa", "experiment": "Enzyme specificity of the FRET branched probes with exogenous enzymes (FIG. 8)", "assay_type": "biochemical, human", "details": "probe 10 μM; MMPs 30 nM; Thrombin 5 U/ml, Plasmin 30 nM, Factor Xa 0.5 μM", "protocol": "as §5, §6, §3"}, "MMP-2/9/13 in the lung": {"test_system": "MMP-2/9/13 in the lung", "experiment": "Ex vivo and in vivo ovine lung and human lung tissue imaging by fCFM", "details": "lung environment", "protocol": "All compounds have undergone biological assessment. For stability we have assessed each compound in the presence of 0.9% NaCl (Saline) or pooled lavage fluid from patients with acute lung injury and analysed by matrix-assisted laser desorption/ionization (MALDI) or fourier transform mass spectrometry (FTMS). In vitro activation was assessed on benchtop confocal in the presence of compound with lung tissue samples. For the ex vivo and in vivo ovine lung (FIG. 11) and human lung tissue experiments (FIG. 12) each compound was assessed in a control lung segment (instilled with 2 ml PBS) or a fibrotic/cancer segment, the compound was administered to the segment of interest and this was imaged by probe based fCFM."}, "MMP [7]": {"test_system": "MMP", "experiment": "Activation of probe variants by MMP in vitro", "assay_type": "biochemical", "details": "additional quencher per probe element", "protocol": "The selectivity of the probes, together with further probes AMF-14b, SVC-030 (both defined in Table 6 below) and SVC-068 (defined in Table 4 below), to detect MMP over elastase, another proteinase relevant in lung disease, was tested and the results for all probes are shown in FIG. 2.\nVariants consisting of D-amino acids at the recognition site sequence with or without blocking PEG units were also synthesised and assessed.\nas §3"}},
  "note": "Like-named read-outs stand apart in the source and are kept apart here. Primed or numbered codes have the meaning given here. Where no end group is shown, it is not given here. [ ]: non-standard residue; d: D form. The star is where a group is joined. 5FAM = O=C1OC2(c3ccc(O)cc3Oc3cc(O)ccc32)c2ccc(C(=O)*)cc21; PEG2′ = PEG spacer unit (glycol linker); K(MR) = not defined here; Nle = CCCC[C@H](N)C(=O)O; βAla = NCCC(=O)O",
  "data": [
    {"compound": "CNC(=O)[C@@H](NC(=O)[C@H](CC(C)C)[C@H](O)C(=O)NO)C(C)(C)C", "note": "[Marimastat]", "values": [
      {"measurement": "fluorescent intensity of probes A and B after incubation of the enzyme with inhibitor", "setting": "MMP [1]", "value": "significantly reduced"}
    ]},
    {"compound": "FAM-PEG2-G-P-K-G-L-K-G-K(MR)-PEG2-k-PEG2-k-3 probe elements ({5FAM-PEG2′}-GPKGLKG; not fully specified (C-terminus); also: three probe elements on a scaffold) [AMF-106]", "values": [
      {"measurement": "MMP-9 (83 kDa), fold change in fluorescent signal", "setting": "MMP-9", "value": 11.20},
      {"measurement": "MMP-13 (52 kDa), fold change in fluorescent signal", "setting": "MMP-13 [2]", "value": 34.52},
      {"measurement": "Km", "setting": "human MMP-2", "value": 0.06, "unit": "µM"},
      {"measurement": "Km", "setting": "human MMP-9", "value": 0.53, "unit": "µM"},
      {"measurement": "Km", "setting": "MMP-13 [3]", "value": 0.22, "unit": "µM"},
      {"measurement": "Km", "setting": "plasmin [4]", "value": 0.36, "unit": "µM"},
      {"measurement": "stability / susceptibility to plasmin", "setting": "plasmin [5]", "value": "susceptible to plasmin"},
      {"measurement": "selectivity for MMP-2/9", "setting": "[6]", "value": "better selectivity for MMP-2/9"}
    ]},
    {"compound": "FAM-PEG2-PFGNleKβA-K(MR)-PEG2-k-PEG2-k-3 probe elements ({5FAM-PEG2′}-PFG[Nle]K[βAla]-{K(MR)-PEG2′-code k-PEG2′-code k}; reading uncertain; also: three probe elements on a scaffold) [SVC-186]", "values": [
      {"measurement": "MMP-9 (83 kDa), fold change in fluorescent signal", "setting": "MMP-9", "value": 6.49},
      {"measurement": "MMP-13 (52 kDa), fold change in fluorescent signal", "setting": "MMP-13 [2]", "value": 26.65},
      {"measurement": "stability / susceptibility to plasmin", "setting": "plasmin [5]; listed as Probe B", "value": "plasmin resistant"},
      {"measurement": "stability / susceptibility to plasmin", "setting": "plasmin [5]; listed as SVC-01-186", "value": "stable"},
      {"measurement": "selectivity for MMP-2/9", "setting": "[6]", "value": "better selectivity for MMP-2/9"},
      {"measurement": "activation in the presence of MMP-2/9/13 in the lung", "setting": "MMP-2/9/13 in the lung", "value": "able to activate"}
    ]},
    {"compound": "FAM-PEG2-PFGNleKβA-K[K(MR)2]-PEG2-k-PEG2-k-3 probe elements [SVC-195]", "values": [
      {"measurement": "MMP-9 (83 kDa), fold change in fluorescent signal", "setting": "MMP-9", "value": 4.84},
      {"measurement": "MMP-13 (52 kDa), fold change in fluorescent signal", "setting": "MMP-13 [2]", "value": 9.00},
      {"measurement": "signal-to-noise ratio", "setting": "MMP [7]", "value": "did not further improved"}
    ]}
  ]
}
